One may read the IC50 as the concentration that gives 50% inhibition. A high value points to weaker potency in that assay.

The first experiment concerns electrical field gradient (Δψ) across IMVs. The experiment is described as follows: Δψ assay (oxonol VI fluorescence with IMVs). Format: biochemical, Escherichia coli.
Conditions: not given
The protocol: Hit compounds surviving the in vitro Tat transport assay screens could be general Δψ inhibitors (ionophores), as both NADH and ATP generate the Δψ necessary for Tat transport. Since our current assay to measure Δψ requires ~20 times more test compound than the Tat transport assays, we reserved this assay for last. The presence of a Δψ was determined by measuring oxonol VI fluorescence. For all 8 hit compounds that survived initial secondary screening, we tested their dose dependent effect on the Δψ, on NADH-dependent in vitro Tat transport efficiency, and on the fluorescence signal recovered from our primary HTS assay (live cell assay). […] Out of 22 independent assays by three different people, compound 18^NIH inhibited Tat transport 12 times. The conflicting results seem more likely to arise from differences in IMV preparations rather than decomposition of or impurities in the samples of compound 18^NIH.
Isolation of inverted membrane vesicles (IMVs), Western blot analyses and purification of pre-SufI-IAC were performed as described previously. Western blots were performed using rabbit anti-mCherry antibodies (1:10,000 dilution) in the presence of 0.1% Triton X-100 and 0.1% Tween 20. The pre-SufI-IAC protein was labeled with Atto565 maleimide, and the resultant fluorescent protein, pre-SufI-IAC^Atto565, was used as a substrate for the in vitro Tat transport assays (A280 = 5.0), as described previously. The presence of a Δψ was determined by measuring oxonol VI fluorescence in presence of Tat^+ IMVs (A280 = 0.5), as described previously, except that the translocation buffer lacked BSA. Steady-state fluorescence spectra and fluorescence intensities of whole cells producing mCherry proteins were determined with an SLM-8100 spectrofluorometer.
Supplementary file pone.0149659.s003.tiff: S3 Fig IC50's for Hit Compound 181^JS. (A) The total cellular mCherry fluorescence (live cell assay; n = 1), (B) the in vitro NADH-dependent Tat transport efficiency of pre-SufI (n = 1), and (C) the maximum transmembrane electrical potential gradient (n = 1) were measured for a range of concentrations of compound 181^JS (S2E Fig). (D) SDS-PAGE gel showing in-gel fluorescence data used in (B). For (A), cells expressing spTorA-mCherry-SsrA were grown under Tat^++ conditions in a 384-well plate in the presence of 0, 0.08, 0.15, 0.3, 0.63, 1.25, 2.5, 5, 10, 20, or 40 μM compound 181^JS, as described for the HTS assay (see Methods). For (B) and (C), IMVs were incubated with the same concentrations of compound 181^JS prior to initiation of Tat transport and Δψ generation by the addition of NADH, as described previously. The red curves are best-fits using y = d + (100-d)/(1+(x/IC50)^b), where b is a slope factor and d is the high concentration asymptote. (TIFF) Click here for additional data file.
With `Oc1cc(Cl)ccc1Oc1ccc(Cl)cc1Cl` [Compound 18^NIH, 5-Chloro-2-(2,4-dichlorophenoxy)phenol], the “effect on the Δψ across IMVs” value is reported as “did not collapse the Δψ”.

Still in this experiment, the particulars now being: electrical field gradient; IMVs A280 = 0.5; NADH.
For the compound `N#CC1c2ccccc2-n2nncc2CN1Cc1cc(Cl)cc(Cl)c1` (centres unmarked) [21^NIH, 5-[(3,5-dichlorophenyl)methyl]-4,6-dihydrotriazolo[1,5-a][1, 4]benzodiazepine-6-carbonitrile], the concentration for half-maximal inhibition (IC50) came to 4000 nM. In turn, `N#CC(C#N)=NNc1ccccc1Br` [Compound 1, [(2-bromophenyl)hydrazono]malononitrile] registered a concentration for half-maximal inhibition (IC50) of 1000 nM. `Oc1cc(Cl)ccc1Oc1ccc(Cl)cc1Cl` [Compound 18^NIH, 5-Chloro-2-(2,4-dichlorophenoxy)phenol] gave a concentration for half-maximal inhibition (IC50) above 100000 nM.

For `O=[N+]([O-])c1cc([N+](=O)[O-])c2ccccc2c1Cl` [Compound 51, 1-chloro-2,4-dinitronaphthalene], the IC50 is 8000 nM. Still for that read-out and setting: the figure for `Fc1nc(F)c(F)c(NNC(=S)Nc2cccc(C(F)(F)F)c2)c1F` [Compound 111, 1-[(2,3,5,6-tetrafluoropyridin-4-yl)amino]-3-[(3-trifluoromethyl)phenyl]thiourea] is 100 nM; for `FC(F)(F)c1cccc(-c2cccc3cnccc23)c1` [Compound 140, 5-[3-(trifluoromethyl)phenyl]isoquinoline] it is 1000 nM; for `O=C(Nc1cccc(C(F)(F)F)c1)Nc1ncc([N+](=O)[O-])s1` [Compound 181^JS, 1-(5-nitro-1,3-thiazol-2-yl)-3-[3-(trifluoromethyl)phenyl]urea] it is 400 nM. As to `O=[N+]([O-])c1ccc(O)c(-c2cccs2)c1` [Compound 202, 4-nitro-2-thiophen-2-ylphenol], the half-maximal inhibitory concentration (IC50) turned out to be 3000 nM.

A further experiment relates to E. coli MC4100(DE3). The experiment is described as follows: Cell growth (optical density A500) under Tat++ conditions. The following applies: Tat++ conditions, concentration-dependent, 8 h 25°C. It counts as cell-based, Escherichia coli. How it is done: Fig 4 Effect of Oxidative Phosphorylation Inhibitors on In Vivo Tat Transport and Sensitivity of Fluorescence Detection on Plates. (A) Effect of oxidative phosphorylation inhibitors on cell growth and mCherry fluorescence under Tat^++ conditions. Cells producing spTorA-mCherry-SsrA under Tat^++ conditions were grown at 25°C for 8 h in the presence of the indicated respiratory inhibitors. After overnight incubation at 4°C, optical densities (upper panel; A500) and total mCherry cellular fluorescence intensities (lower panel; EX = 587 nm, EM = 610 nm) were measured (n = 3). Nigericin (N; 50 μM) is a H^+/K^+ exchanger, which collapses the ΔpH gradient. Valinomycin (V; 50 μM) is a K^+ ionophore, which collapses the Δψ. NaSCN (SCN; 50 mM) collapses the Δψ. NaN3 (N3; 0.1%) inhibits the cytochrome bo3 terminal oxidase. (B) Effect of NaSCN concentration on cell density and total mCherry cellular fluorescence. Measurements were made after incubating cells overnight at 4°C (n = 3). (C) Calibration and sensitivity of mCherry fluorescence detection in 384-well plates. Overnight cultures of E. coli MC4100(DE3) cells were diluted to A500 = 0.25, 0.2, 0.15, 0.10 and 0.05, and aliquoted into 384-well plates. The spTorA-mCherry-SsrA and TatABC proteins were induced together or neither were induced, as indicated. The cells were incubated at 25°C for 8 hours, and stored overnight at 4°C. Optical densities (upper panel) and mCherry fluorescence intensities (lower panel) were determined with a BMG Polarstar Omega plate reader (at 500 nm for absorbance; EX = 584 nm, EM = 620 nm for fluorescence). For comparison, the absorbance and fluorescence intensities from purified spTorA-mCherry-H6 (30, 25, 20, 15, 10 and 5 nM) are also shown (n = 3 plates, 16 wells/plate). (D) Simulated hits on 384-well plates. Using the approach described in (C), cells (A500 = 0.15) were grown on plates under the indicated conditions, and then fluorescence intensities were measured. spTorA-mCherry-SsrA was used for conditions II-IV. spTorA-mCherry-H6 was used for a minus SsrA control (I; 100%). The SsrA tag decreased the mCherry fluorescence intensity (II; 63±14%), consistent with a decrease in cytoplasmic mCherry concentration due to SsrA-dependent degradation.
The plates containing cells and dispersed test compounds were grown with shaking (200 rpm) at 25°C for 8 h. Plates were individually mounted, not stacked, on a hollow plastic platform, allowing adequate air circulation. Following the 8 h incubation, plates were transferred to 4°C for 16 h. Each plate was covered with an empty plate to prevent condensation on the lid. […] Following the incubation, plates were read using a BMG Polarstar Omega plate reader (BMG Labtech, Ortenberg, Germany) to determine optical densities (A500) and mCherry fluorescence intensities (EX = 584 nm, EM = 620 nm).
Supplementary file pone.0149659.s005.tiff: S5 Fig Effect of P. aeruginosa Tat Inhibitors on E. coli Cell Growth and Tat Transport. The concentration-dependent effects of Bay 11–7082 (A) and N-phenylmaleimide (B) on bacterial growth (black) and in vivo Tat transport of spTorA-mCherry-SsrA (red) was determined under Tat^++ conditions (top). An overnight culture of MC4100(DE3) (pTorA-mCherry-SsrA, pTatABC-Duet1) was diluted 1:50 in 10 mL fresh LB broth with appropriate antibiotics and dispensed (2 mL) into 5 tubes, and growth was continued at 37°C with shaking at 200 rpm until A500 ≈ 0.5. The indicated concentrations of the two compounds were added, and the expression of spTorA-mCherry-SsrA and TatABC were induced. Cultures were grown for another 8 h at 25°C. Cell growth was assayed by A500, and cells (1 mL, A500 = 1.0) were fractionated into cytoplasmic (C) and periplasmic (P) fractions as described. Transport of spTorA-mCherry-SsrA was assayed by in-gel fluorescence of mCherry (upper gels) and Western blot analyses (middle gels). […]
For `Cc1ccc(S(=O)(=O)/C=C/C#N)cc1` [Bay 11–7082], the “effect on E. coli growth” value is “inhibited E. coli growth”. For `O=C1C=CC(=O)N1c1ccccc1` [N-phenylmaleimide], the “effect on E. coli growth” value is “inhibited E. coli growth”.

The values above are taken from paper PMC4764201, “High Throughput Screen for Escherichia coli Twin Arginine Translocation (Tat) Inhibitors” (PLoS ONE, 2016).
